Test results published in patent US20230321012A1 (priority 2021, published 2023).
Several values for one entry are separate records, joined by “and”; a condition that tells them apart may be missing. Equal entries are not always repeated.

Experiments:
[1] = system: polyamine transport in T cells (CD4+ and CD4- lymphocytes, whole human blood); experiment: Ex vivo blood-based PD bioassay: C5 (fluorescent spermine) uptake into stimulated T cells by FACS; format: cell-based
Experimental: To evaluate the target engagement activity of AMXT 1501 after oral administration in human patients, an ex vivo PD assay assessing lymphocyte spermine uptake and inhibition of uptake by AMXT 1501 was developed. Briefly, uptake of a fluorescent-labeled spermine analog conjugate (Fl-Spm, Compound 5, C5, Annereau, J. P., et al., A fluorescent biomarker of the polyamine transport system to select patients with AML for F14512 treatment. Leuk Res. 2010 October; 34(10):1383-9) was assayed by fluorescence-activated cell sorting (FACS) analysis in CD4+ and CD4^− T cells in human blood samples stimulated with anti-CD3+ and anti-CD28+ antibodies.
Polyamine uptake in blood lymphocytes (CD4^+ or CD8^+ T cells) was measured at the same time points as the PK levels for AMXT 1501 were measured. Comparisons were made between uptake in the pre-treatment sample and samples taken over time following dosing.
Pharmacodynamic Bioassay. The purpose of this whole blood assay was to quantify the inhibition of polyamine transport in T cells in human subjects receiving AMXT 1501. Collected whole blood from subjects receiving AMXT 1501 was diluted with serum-free media and stimulated with anti-CD3 (T cell receptor engagement) and anti-CD28 (co-stimulatory signal) to drive T cell activation and proliferation for a total of three days. During the last 12-18 hours of culture, a fluorescently-labeled spermine analog (Fl-Spm, Compound 5, C5) was added to the in vitro culture to monitor polyamine uptake into cells. The functional activity (e.g., inhibitory effect) of AMXT 1501 on C5 uptake by T cells was then determined using flow cytometry by measuring the frequency and median fluorescence intensity (MFI) of C5 in T cells. Activation and proliferation of T cells is required for the uptake of C5; however, in the presence of high concentrations of AMXT 1501 in vitro, C5 uptake is inhibited despite active proliferation of T cells. Therefore, a whole blood sample spiked with high levels of AMXT 1501 prior to culture will be used as a positive control for each subject in this assay. […]

[2] = MALDI-FTICR imaging quantitation of DFMO in whole-body sections of Th-MYCN mice; format: in vivo, mouse; conditions: for concentration at 96 h: male, Th-MYCN, mouse
Experimental: Male Th-MYCN mice, approximately 5-6 weeks of age, with spontaneous neuroblastoma tumor development commenced treatment according to Table 6.1 when tumors were approximately 5 mm in size. […] Time point: three treatments, cull 24 hours after last treatment in the morning.
Sample Preparation. Animals were euthanized on the morning of the 4th day, after three days of treatment and shaved, and then the carcasses were frozen. Tissues stored at −80° C. were placed inside the cryostat. The temperature of the cryostat was maintained around −20° C. and −40° C. 20-am tissue sections in the sagittal plane going through the left eye were obtained for each carcass. Tissue sections were mounted directly on indium tin oxide (ITO) slides.
Tissue sections on ITO slides were placed in a desiccator for 15 minutes before matrix deposition. An image of the slides was then acquired with a scanner to synchronize positions of the tissue sections with the target of the laser.
Dilution series of the test items were prepared in water from the stock solutions. […] A spot of pure solvent was added as a negative control. Slides were then placed in a desiccator for 15 minutes before MALDI matrix deposition. The control liver tissue consisted of a liver homogenate spiked with an olanzapine standard at 40 g/g of tissue. Sections of the liver homogenate were prepared and added on each ITO slide in order to monitor the signal of the FTICR through the different acquisitions and thus validate the comparison between slides.
For AMXT 1501, 2,5-dihydroxybenzoic acid (DHB) at 40 mg/ml in 1:1 MeOH/H2O with 1% trifluoroacetic acid (TFA) and 25 nM of ^13C4-AMXT 1501 was sprayed on the samples with an automatic sprayer (TM-Sprayer, HTX-Imaging).
The mass spectrometry imaging (MSI) acquisitions were performed using the parameters in Table 6.2 with a data reduction parameter set at 95%. MSI data were acquired and analyzed with FlexImaging 4.1 (Bruker Daltonics), Data Analysis 4.0 (Bruker Daltonics) and Multimaging™ 1.2.2 (ImaBioTech).
Intensity scales representing the molecular signal were adjusted for each image to discriminate the noise from the molecular signal but also to give the best visualization of the signal across the sections. […] Convolution step was performed on the original images using a normalized uniform kernel, which averages the values around a position. The kernel size was manually optimized for the analysis, minimizing the background noise. Based on the MSI data set on the tissue sections and the dilution series, the quantitation of the test items was performed with the IS approach. A correlation between the calibration curve and the signal obtained on the tissues was performed in order to determine the concentration of the test items per histological structure in g/g of tissue and μM.

[3] = COMBO (1% DFMO + AMXT 1501 2.5 mg/kg SC), mice 284, 286, 96 h, 2.5 mg/kg
[4] = DFMO alone 1% in drinking water, mice 049, 082, 96 h

Compound: CCCCCCCCCCCCCCCC(=O)NCCCC[C@@H](N)C(=O)NCCCNCCCCNCCCN [AMXT 1501, D-lys(palmitoyl)-spermine]
- EC50 ([1]; Homo sapiens, T-cell, read-out: ED50, inhibition of fluorescent-labeled spermine uptake): ~75 nM
- ex vivo target engagement activity in patient whole blood ([1]; several Part 2 Cohort 3 patients, Day 7-8, oral AMXT 1501 dicaprate, preliminary): sustained AMXT 1501 target engagement activity
- concentration of maximal fluorescent-labeled spermine uptake inhibition ([1]; whole human blood, absence of DFMO): 250 nM

Compound: NCCCC(N)(C(=O)O)C(F)F (stereo not drawn) [DFMO, difluoromethylornithine]
- DFMO in Intestine wall ([2]; COMBO (1% DFMO + AMXT 1501 2.5 mg/kg SC), mice 284, 286, 96 h): 6156 µg/g
- DFMO in Cardiac blood [2, 3]: 20.9 µg/g
- DFMO in Eye [2, 3]: 49.3 µg/g
- DFMO in Intestine contents [2, 3]: 8702 µg/g and 11264 µg/g
- DFMO in Liver [2, 3]: 33.0 µg/g
- DFMO in Lung [2, 3]: 43.1 µg/g
- DFMO in Myocardium [2, 3]: 26.2 µg/g
- DFMO in Cardiac blood [2, 4]: 16.5 µg/g
- DFMO in Eye [2, 4]: 28.8 µg/g
- DFMO in Intestine contents [2, 4]: 3487 µg/g and 2267 µg/g
- DFMO in Kidney [2, 4]: 133 µg/g
- DFMO in Liver [2, 4]: 28.5 µg/g
- DFMO in Lung [2, 4]: 24.8 µg/g
- DFMO concentration in tumor ([2]; DFMO only treatment group): 35 μg/g and 192 μM
- tumor DFMO levels ([2]; MYCN mice after overnight drinking of 1% DFMO orally): 165 to 192 µM
- DFMO concentration in tumor ([2]; combination treatment group): 30 μg/g and 165 μM
- tumor DFMO concentration versus Ki ([2]; combination treatment group): 4.2 times
- concentration at 96 h ([2]; brown fat, oral, 40 mg/day, DFMO in brown fat): ~25000 ng/g
- concentration at 96 h ([2]; brown fat, oral, 1 % in drinking water, DFMO in Brown fat, DFMO alone 1% in drinking water, mice 049, 082, 96 h): 22600 ng/g
- concentration at 96 h ([2]; brown fat, sc, 2.5 mg/kg, DFMO in Brown fat, COMBO (1% DFMO + AMXT 1501 2.5 mg/kg SC), mice 284, 286, 96 h): 27500 ng/g
- concentration at 96 h ([2]; cardiac blood, oral, 40 mg/day, DFMO in cardiac blood, combination and single administration regimens): 16000 to 35000 ng/g
- concentration at 96 h ([2]; cardiac blood, oral, 1 % in drinking water, DFMO in Cardiac blood, DFMO alone 1% in drinking water, mice 049, 082, 96 h): 27800 ng/g
- concentration at 96 h ([2]; cardiac blood, sc, 2.5 mg/kg, DFMO in Cardiac blood, COMBO (1% DFMO + AMXT 1501 2.5 mg/kg SC), mice 284, 286, 96 h): 35400 ng/g
- concentration at 96 h ([2]; eye, oral, 1 % in drinking water, DFMO in Eye, DFMO alone 1% in drinking water, mice 049, 082, 96 h): 33000 ng/g
- concentration at 96 h ([2]; eye, sc, 2.5 mg/kg, DFMO in Eye, COMBO (1% DFMO + AMXT 1501 2.5 mg/kg SC), mice 284, 286, 96 h): 92100 ng/g
- concentration at 96 h ([2]; intestine wall, oral, 1 % in drinking water, DFMO in Intestine wall, DFMO alone 1% in drinking water, mice 049, 082, 96 h): 803000 ng/g
- concentration at 96 h ([2]; kidney, oral, 1 % in drinking water, DFMO in Kidney, DFMO alone 1% in drinking water, mice 049, 082, 96 h): 77600 ng/g
- concentration at 96 h ([2]; liver, oral, 1 % in drinking water, DFMO in Liver, DFMO alone 1% in drinking water, mice 049, 082, 96 h): 36100 ng/g
- concentration at 96 h ([2]; liver, sc, 2.5 mg/kg, DFMO in Liver, COMBO (1% DFMO + AMXT 1501 2.5 mg/kg SC), mice 284, 286, 96 h): 44700 ng/g
- concentration at 96 h ([2]; lung, oral, 1 % in drinking water, DFMO in Lung, DFMO alone 1% in drinking water, mice 049, 082, 96 h): 48700 ng/g
- concentration at 96 h ([2]; lung, sc, 2.5 mg/kg, DFMO in Lung, COMBO (1% DFMO + AMXT 1501 2.5 mg/kg SC), mice 284, 286, 96 h): 64700 ng/g
- concentration at 96 h ([2]; myocardium, oral, 1 % in drinking water, DFMO in Myocardium, DFMO alone 1% in drinking water, mice 049, 082, 96 h): 10000 ng/g
- concentration at 96 h ([2]; myocardium, sc, 2.5 mg/kg, DFMO in Myocardium, COMBO (1% DFMO + AMXT 1501 2.5 mg/kg SC), mice 284, 286, 96 h): 28500 ng/g
- concentration at 96 h ([2]; oral, 40 mg/day, DFMO in eye, kidney, liver, lung, testis and thymus, range from testis to eye, both treatments): 14000 to 92000 ng/g
- concentration at 96 h ([2]; pancreas, sc, 2.5 mg/kg, DFMO in Pancreas, COMBO (1% DFMO + AMXT 1501 2.5 mg/kg SC), mice 284, 286, 96 h): 83000 ng/g
- concentration at 96 h ([2]; spleen, sc, 2.5 mg/kg, DFMO in Spleen, COMBO (1% DFMO + AMXT 1501 2.5 mg/kg SC), mice 284, 286, 96 h): 83600 ng/g
- concentration at 96 h ([2]; stomach contents, sc, 2.5 mg/kg, DFMO in Stomach contents, COMBO (1% DFMO + AMXT 1501 2.5 mg/kg SC), mice 284, 286, 96 h): 111000 ng/g
- concentration at 96 h ([2]; stomach wall, oral, 1 % in drinking water, DFMO in Stomach wall, DFMO alone 1% in drinking water, mice 049, 082, 96 h): 216000 ng/g
- concentration at 96 h ([2]; stomach wall, sc, 2.5 mg/kg, DFMO in Stomach wall, COMBO (1% DFMO + AMXT 1501 2.5 mg/kg SC), mice 284, 286, 96 h): 44500 ng/g
- concentration at 96 h ([2]; testis, oral, 1 % in drinking water, DFMO in Testis, DFMO alone 1% in drinking water, mice 049, 082, 96 h): 14500 ng/g
- concentration at 96 h ([2]; testis, sc, 2.5 mg/kg, DFMO in Testis, COMBO (1% DFMO + AMXT 1501 2.5 mg/kg SC), mice 284, 286, 96 h): 48200 ng/g
- concentration at 96 h ([2]; thymus, oral, 1 % in drinking water, DFMO in Thymus, DFMO alone 1% in drinking water, mice 049, 082, 96 h): 20900 ng/g
- concentration at 96 h ([2]; thymus, sc, 2.5 mg/kg, DFMO in Thymus, COMBO (1% DFMO + AMXT 1501 2.5 mg/kg SC), mice 284, 286, 96 h): 26700 ng/g
- concentration at 96 h ([2]; tumor, oral, 1 % in drinking water, DFMO in Tumor, DFMO alone 1% in drinking water, mice 049, 082, 96 h): 35100 ng/g
- concentration at 96 h ([2]; tumor, sc, 2.5 mg/kg, DFMO in Tumor, COMBO (1% DFMO + AMXT 1501 2.5 mg/kg SC), mice 284, 286, 96 h): 30400 ng/g
